Two molecules from patent publication US8685538B2, “Stable polyelectrolyte coated nanoparticles” (Northeastern University, priority 2009, dated 2014) can be followed below.

The data set can be described thus: Zeta potential (surface potential) measurement after each polyelectrolyte coating. The class given is physicochemical. The protocol: 5 mg paclitaxel or atavoquone was dissolved in 5 mL of a 60% ethanol/water or a 60% acetone/water solution in a glass tube. This solution was ultrasonicated at 100% amplitude for 2 min, and then 1 mL of a 5 mg/mL polylysine, polyethylenimine, or protomine sulphate solution was added. This was then ultrasonicated for 1 min while adding water at certain speeds and volumes (e.g., 1 mL/min until 5 mL to 10 mL was reached). This was then ultrasonicated for another 30 min. After sonication, the zeta potential of the sample was measured to assure recharging of the formed paclitaxel nanocrystals to positive. Layer-by-layer (LbL) coating with 2 layers of BSA/PS (bovine serum albumin/protamine sulfate) was performed (as described in, e.g., WO2009/012303), followed by SEM readings and measurement of zeta potential.
After each coating, a sample was taken and surface potential was measured using a Zeta potential analyzer.
PAH and PSS were alternately added to the curcumin nanoparticles using the LbL procedure. […] PAH adsorption during nanoparticles synthesis converted the potential to +30±2 mV. Next, anionic PSS adsorption changed the potential to −53±2 mV, followed by +19±2 mV with the addition of PAH, and again to −50±2 mV with the addition of PSS. Therefore, multiple layers of polycations and polyanions, i.e., (PAH/PSS)2, were coated onto the curcumin nanoparticles.

For the setting “bare, initial potential, FIG. 7”, `COc1cc(/C=C/C(=O)CC(=O)/C=C/c2ccc(O)c(OC)c2)ccc1O` [bare curcumin microparticles, curcumin] yielded a zeta potential of −50±2 mV.
In the case of `CC(=O)O[C@H]1C(=O)[C@@]2(C)[C@H]([C@H](OC(=O)c3ccccc3)[C@]3(O)C[C@H](OC(=O)[C@H](O)[C@@H](NC(=O)c4ccccc4)c4ccccc4)C(C)=C1C3(C)C)[C@]1(OC(C)=O)CO[C@@H]1C[C@@H]2O` [paclitaxel], the zeta potential result (initial paclitaxel compound, no coating, FIG. 4) is given as “about −60 mV”.
